Publication PMC6988309, “Preclinical efficacy for a novel tyrosine kinase inhibitor, ArQule 531 against acute myeloid leukemia” (Journal of Hematology & Oncology, 2020)
Where “and” joins values, the source holds several entries; their conditions need not be identical. Equal values may be shown once. Read-outs that look alike come from different tables or passages of the source.

What was measured:
MOLM-13 = assay: MTS proliferation assay 72 h, MOLM-13
Procedure: (§1) A total of 5000–30,000 cells from the lines above were treated in a 96-well plate for 72 h. CellTiter 96 Aqueous MTS reagent (Promega, Madison, WI) was added to cells followed by a 3-h incubation at 37 °C, 5% CO2. The absorbance was measured at 490 nm using DTX 880 plate reader and the half maximal inhibitory concentration (IC50) was calculated using GraphPad Prism 7 (GraphPad Software, La Jolla, CA) and SAS/STAT software (SAS v9.4 for Windows, SAS Institute, Inc., Cary, NC). For the MOLM-13 resistant and the Ba/F3-FLT3-ITD/TKD cell lines, cells were treated for 72 h and cell viability was evaluated using MTT assay (Roche Diagnostics. Mannheim. Germany) according to the manufacturer’s instructions.

THP-1 = assay: MTS proliferation assay 72 h, THP-1; assay type: cell-based, human
Procedure: as §1

Ba/F3 FLT3-D835Y = assay: MTT proliferation assay 72 h, Ba/F3 FLT3-D835Y; assay type: cell-based, murine; settings: Mus musculus, BaF3, read-out: Estimated absolute µM IC50 and 95% CI
Procedure: (§2) For the MOLM-13 resistant and the Ba/F3-FLT3-ITD/TKD cell lines, cells were treated for 72 h and cell viability was evaluated using MTT assay (Roche Diagnostics. Mannheim. Germany) according to the manufacturer’s instructions.

Ba/F3 GFP+IL3 = assay: MTT proliferation assay 72 h, Ba/F3 GFP+IL3; assay type: cell-based, murine
Procedure: as §1

MOLM13-Res = assay: MTT proliferation assay 72 h, MOLM13-Res (D835Y); assay type: cell-based, human
From the text: As one of the main resistance mechanisms to FLT3 inhibitors is the acquisition of TKD mutations, we tested the anti-proliferative activity of ARQ 531 in the MOLM-13 TKI-resistant (MOLM13-Res) cell line previously described in Zimmerman et al.. In this model, MOLM-13 cells have gained a D835Y mutation via continuous exposure to the FLT3 inhibitor tandutinib.

Ba/F3 FLT3-ITD/D835Y = assay: MTT proliferation assay 72 h, Ba/F3 FLT3-ITD/D835Y; assay type: cell-based, murine; settings: Mus musculus, BaF3, read-out: Estimated absolute µM IC50 and 95% CI
Procedure: as §2

MV4-11 = assay: MTS proliferation assay 72 h, MV4-11; assay type: cell-based; settings: Homo sapiens, MV4-11, read-out: Estimated absolute µM IC50 (95% CI), 4-parameter logistic model
Procedure: (§3) A total of 5000–30,000 cells from the lines above were treated in a 96-well plate for 72 h. CellTiter 96 Aqueous MTS reagent (Promega, Madison, WI) was added to cells followed by a 3-h incubation at 37 °C, 5% CO2. The absorbance was measured at 490 nm using DTX 880 plate reader and the half maximal inhibitory concentration (IC50) was calculated using GraphPad Prism 7 (GraphPad Software, La Jolla, CA) and SAS/STAT software (SAS v9.4 for Windows, SAS Institute, Inc., Cary, NC).

[1] = tested on: Ba/F3 FLT3-ITD pMIT-Empty
Procedure: (§4) CellTiter 96 Aqueous MTS reagent (Promega, Madison, WI) was added to cells followed by a 3-h incubation at 37 °C, 5% CO2. The absorbance was measured at 490 nm using DTX 880 plate reader and the half maximal inhibitory concentration (IC50) was calculated using GraphPad Prism 7 (GraphPad Software, La Jolla, CA) and SAS/STAT software (SAS v9.4 for Windows, SAS Institute, Inc., Cary, NC).

[2] = tested on: MOLM-13 disseminated AML xenograft; assay: MOLM-13 disseminated xenograft, ARQ + Ven combination study (NCG mice); assay type: in vivo; settings: 50 mg/kg ARQ 531 and/or 75 mg/kg venetoclax Q.D.P.O from 4 days post-engraftment until ERC; vehicle 25 days
Procedure: All experiments were conducted after approval of The Ohio State University Institutional Animal Care and Use Committee. Mice were randomized and enrolled for daily oral gavage (Q.D.P.O) treatment of vehicle or 50 mg/kg ARQ 531. Mice were treated until reaching early removal criteria (ERC) defined as 20% weight loss, lethargy, hind limb paralysis, moribund, anorexia, dehydration, hunched posture, severe diarrhea, breathing difficulties, or any abnormal neurological symptoms. […]
Fig. 7 BCL2 inhibition improves ARQ 531 in vivo activity. a Kaplan–Meier survival curve in the MOLM-13 xenograft after mice were treated with vehicle (N = 9) or 50 mg/kg ARQ 531 Q.D.P.O (N = 9) or 75 mg/kg venetoclax Q.D.P.O (N = 10) or 50 mg/kg ARQ 531 and 75 mg/kg venetoclax combination Q.D.P.O (N = 10) at 4 days post engraftment until ERC. b Noninvasive serial whole body bioluminescence imaging of ventral view to monitor leukemia progression and regression post treatment. Mice were injected with 150 mg/kg Firefly D-Luciferin for evaluation of tumor burden as determined by whole body bioluminescence imaging using IVIS imager

Ba/F3 FLT3-ITD = assay: MTT proliferation assay 72 h, Ba/F3 FLT3-ITD; assay type: cell-based, murine; settings: Mus musculus, read-out: Estimated absolute µM IC50 and 95% CI
Procedure: as §1

BTK phosphorylation = assay: Immunoblot of phospho-BTK; assay type: cell-based, human; settings: AML cell lines; MOLM-13 1 µM for 1 hour (Figure S2)
Procedure: Cells were washed in ice-cold PBS then lysed in 1X Cell Lysis Buffer (CST) supplemented with proteinase and phosphatase inhibitors cocktail (Roche). Pierce BCA Protein Assay was used to quantify the protein lysates (Thermo Fisher Scientific, Waltham, MA). For Immunoblotting, 15–25 μg of protein lysate was prepared in 2X or 4X Laemmeli’s sample buffer (Bio-Rad Laboratories, Hercules, CA) and heated for 5 min at 100 °C. Samples were separated on 8% sodium dodecyl sulfate polyacrylamide gel and transferred onto nitrocellulose membrane (Bio-Rad Laboratories, Hercules, CA). The membranes were blocked for 1 h in Blocker BLOTTO Blocking Buffer (Thermo Fisher Scientific, Waltham, MA) or 5% non-fat milk followed by overnight incubation at 4 °C with primary antibody followed by HRP-conjugated secondary antibodies and visualized with chemiluminescent Pierce ECL Substrate (Thermo Fisher Scientific, Waltham, MA) on X-ray films.
Immunoblot analysis for MOLM-13, MV4-11, and OCI-AML3 AML cell lines (representative of 2-3 independent blots). […] Twenty to 25 μg of total protein lysate was loaded per lane.

OCI-AML3 = assay: MTS proliferation assay 72 h, OCI-AML3; assay type: cell-based; settings: Homo sapiens, OCI-AML-3, read-out: Estimated absolute µM IC50 (95% CI), 4-parameter logistic model
Procedure: as §3

[3] = design: method as in doi:10.1182/blood-2018-99-116338; settings: dose escalation study; cited from earlier work
[4] = tested on: Ba/F3 FLT3-ITD pMIT SYK-TEL
Procedure: as §4

FLT3-WT = target: T1, FLT3-WT (Homo sapiens, UniProt P36888); assay: Biochemical assay of recombinant kinases, FLT3-WT; settings: recombinant kinase domain, 10 μmol/L ATP
T1 construct: measured using recombinant protein constructs of kinase domains (Reaction Biology); purchased Reaction Biology
T1 sequence (P36888 610-943 limits assumed): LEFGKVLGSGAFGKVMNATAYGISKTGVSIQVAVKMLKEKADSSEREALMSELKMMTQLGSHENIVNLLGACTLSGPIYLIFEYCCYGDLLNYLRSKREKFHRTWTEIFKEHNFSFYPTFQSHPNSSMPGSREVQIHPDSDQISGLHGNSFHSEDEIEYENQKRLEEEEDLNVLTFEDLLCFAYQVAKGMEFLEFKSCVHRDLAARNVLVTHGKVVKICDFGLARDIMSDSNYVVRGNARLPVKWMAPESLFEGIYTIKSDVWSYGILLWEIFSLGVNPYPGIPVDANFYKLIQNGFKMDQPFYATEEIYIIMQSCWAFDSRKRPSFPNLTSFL
Procedure: Biochemical inhibition of FLT3-WT and FLT3-ITD fusion was measured using recombinant protein constructs of kinase domains (Reaction Biology).

## O=C(c1ccc(Oc2ccccc2)cc1Cl)c1c[nH]c2ncnc(N[C@@H]3CC[C@@H](CO)OC3)c12 [ARQ 531]
MOLM-13; Homo sapiens, MOLM-13, 72 h, read-out: Estimated absolute µM IC50 (95% CI)
  IC50: 0.69 µM
MOLM-13; MOLM-13, 1 µM, 72 hours MTS (ibrutinib 1 hour washout)
  in vitro anti-proliferative activity: demonstrated in vitro anti-proliferative activity
THP-1
  resistant to concentrations up to: > 10 µM
THP-1; 4-parameter logistic model
  Estimated absolute µM IC50 (95% CI): Unable to calculate IC50
Ba/F3 FLT3-D835Y
  IC50: 6.11 µM
Ba/F3 GFP+IL3
  Estimated absolute µM IC50 and 95% CI: Unable to calculate IC50
MOLM13-Res; Homo sapiens, read-out: Estimated absolute µM IC50 and 95% CI, MTT, 72 h
  IC50: 3.42 µM
MOLM13-Res; read-out: Estimated absolute µM IC50 and 95% CI, MTT
  IC50: 3.4 µM
Ba/F3 FLT3-ITD/D835Y
  IC50: 7.55 µM
MV4-11
  IC50: 1.45 µM
[1]
  IC50: 4.24 µM and 2.7 µM and 3.48 µM
[2]
  survival: 27 days
Ba/F3 FLT3-ITD
  IC50: 1.21 µM
BTK phosphorylation
  effect on BTK phosphorylation: potently inhibits BTK
OCI-AML3
  IC50: 1.51 µM
[3]
  treatment emergent adverse events: no reported treatment emergent adverse events
[4]
  IC50: 11 µM and 5.94 µM and 6.61 µM
FLT3-WT
  IC50: 0.082 µM
